“Also recorded” adds a separate entry of the source. Read-outs that look alike come from different tables or passages of the source. Blank lines part the entries; values can stand above or below the molecule they belong to. Where no end group is shown, it is not given here.
Key:
[1] = test system: supercoiled plasmid DNA (pBR322); assay: DNA gel shift assay (agarose gel electrophoresis); format: binding; conditions: 5-25 μM ligand, 15 minutes, pBR322, 10 mM Tris pH 8.0
Experimental: DNA Gel Shift Assays. The affinity of EuP3, EuP2, and each free peptide for supercoiled plasmid DNA was examined by agarose gel electrophoresis. Plasmid (pBR322, New England Biolabs, Inc.) was incubated for 15 minutes at room temperature with increasing concentrations of each ligand (5-25 μM), prior to the addition of loading dye. Each lane contained 1 μg plasmid (50 μM base pairs) in 10 mM Tris buffer at pH 8.0.

[2] = Hydrolysis of bis-nitrophenylphosphate (BNPP) followed spectrophotometrically; format: biochemical; conditions: 37° C., BNPP 500 μM
Experimental: Hydrolytic Phosphate Cleavage. Because the EF-Hand is physiologically strictly a structural motif, an isolated Ca-binding loop's ability to affect hydrolytic cleavage was addressed. The hydrolysis of bis-nitrophenylphosphate (BNPP) was followed spectrophotometrically under turnover conditions. The absorbance increase at 400 nm due to liberated 4-nitrophenolate was observed over the initial 10-14 hours of the reaction (<10% BNPP converted). […] Plots of absorbance vs. time were converted to concentration units (ε=18,500 M^−1 cm^−1) to give first order rate constants (Sardesai et al., 1994).

[3] = Relaxivity (water proton relaxation) without DNA; format: physicochemical; conditions: 37° C., 50 mM HEPES, pH 7.4
Experimental: (§1) P3W peptide ([…], Gd-binding EF-hand site is shaded) was synthesized and purified (>95% by HPLC) by the Caltech Peptide Synthesis Facility, Pasadena, Calif. The gadolinium complex was prepared by dissolving P3W in 50 mM HEPES buffer, pH 7.4, and adding 0.8 equivalents Gd(NO3)3 to give a 500 μM stock solution. Peptide concentration was estimated by absorbance (ε280=7290 M^−1cm^−1); the absence of uncomplexed Gd^3+ was confirmed by colorometric analysis with xylenol orange. All Gd concentrations were determined by ICP-MS (Agilent 7500). Relaxation rates were determined at 20 and 60 MHz, 37° C. using Broker NMS 120 and Brtiker mg60 Minispec spectrometers, respectively. NMRD profiles were recorded on a Koenig-Brown field cycling relaxometer; phantoms were imaged on a GE 1.5T clinical imager.

[4] = test system: 14-mer d.s. DNA: self-complementary 5′-GAGCTAATTAGCTC-3′; assay: Relaxivity in the presence of one equivalent DNA; format: physicochemical; conditions: 37° C., 50 mM HEPES, pH 7.4, one equivalent DNA
Experimental: as §1

[5] = T1-weighted MR imaging of phantoms at 1.5 tesla; conditions: 1.5 T, HEPES buffer pH 7.4, ambient temperature
Experimental: FIG. 6. T1-weighted MR images at 1.5 tesla of phantoms in HEPES buffer, pH 7.4, ambient temperature. (A) 3D SPGR TR=40, TE=3.1, α=75°. Images: a) HEPES; b) 80 μM P3W; c) 80 μM DNA (14-mer duplex); d) 115 μM GdDTPA; e) 115 μM GdDTPA+DNA (1:1); f) 8.6 μM GdP3W+DNA (1:1); g) 86 μM GdP3W; h) 86 μM GdP3W+DNA (1:1); i) 86 μM GdP3W+DNA (1:1)+NaCl (150 μM). (B) 3D SPGR TR=40, TE=4.0, α=40°. Images: a) HEPES, b) 48 μM GdDTPA, c) 48 μM GdP3W; d) 48 μM GdP3W+DNA.
as §1

[6] = cited from earlier work
[7] = test system: supercoiled, double-stranded DNA; assay: Cleavage of supercoiled plasmid monitored by agarose gel electrophoresis; format: biochemical
Experimental: The conversion of supercoiled plasmid (type I) to open circular (type II), linear (type III), or smaller fragments was monitored by agarose gel electrophoresis. Because the synthetic peptides bind strongly to DNA, thus preventing the observation of products, the peptides were chelated prior to electrophoresis (Falke et al., 1994). At the point each reaction was quenched (0.1 M EDTA), a suspension of neutral, washed, cation resin (Amberlyst, 10-20 μL) was incubated with each sample for 30 minutes, spun down, and the supernatent loaded into wells. After 24 hours of reaction (incubated at 37° C.), the concentration-dependent formation of open circular plasmid was observed. […] Over a 10-300 μM EuP3 gradient, nicking occurred from 10-150 μM, with the greatest amount of cleavage at 30 μM EuP3.
Sequence Selective DNA Cleavage. […] This cleavage is not dependent on the strain inherent in supercoiled plasmid, as cleavage of linearized ^32P-labeled DNA oligonucleotides was observed as well. Labeled fragments were incubated with Ce(NH3)6(NO3)4 and varying concentrations of peptides P3 or P3W at 37° C. overnight and analyzed by acrylamide gel electrophoresis. Cleavage was concentration dependent, and distinct between metallopeptides.

[8] = test system: T1, P3 (engrailed HTH / consensus EF-hand chimeric peptide) (synthetic construct); assay: EMSA; conditions: Eu(III) complex EuP3; agarose gel shift, estimate from quantified band volumes; 10 mM Tris pH 8.0, room temp
T1 sequence: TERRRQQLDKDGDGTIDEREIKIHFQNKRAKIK

[9] = molecular target: P4a (chimeric peptide: alpha2 and alpha3 of engrailed, minus the last turn of alpha2 and the beta-turn, with calmodulin loop I); assay: measured dissociation constants for EuP4a; method not stated; self-association in the presence of Eu(III)
[10] = 10 μM Eu/10 μM peptide, pH 7.7, 10 mM Tris buffer
[11] = 25 μM Eu/25 μM peptide, pH 7.7, 10 mM Tris buffer
[12] = 25 μM Eu/50 μM peptide, pH 7.7, 10 mM Tris buffer

Molecule: [Cl][Eu]([Cl])[Cl] [EuCl3, reference compound]
gel shift / DNA affinity (in words) [1]: not
Rates (K(obs)) of BNPP cleavage ([2]; 10 μM Eu/0 peptide, pH 7.7, 5 mM Tris buffer): 5.2 ± 0.6 s^−1 × 10^7
Rates (K(obs)) of BNPP cleavage ([2]; 12 μM Eu/0 peptide, pH 7.7, 5 mM Tris buffer): 5.7 ± 0.3 s^−1 × 10^7

Molecule: O=C([O-])CN(CCN(CC(=O)[O-])CC(=O)O)CCN(CC(=O)[O-])CC(=O)O.[Gd+3] [GdDTPA]
r1 ([3]; 20 MHz): 4.6 mM⁻¹ s⁻¹
r1 ([3]; 60 MHz): 3.5 mM⁻¹ s⁻¹
r1 + DNA ([4]; 20 MHz): 4.9 mM⁻¹ s⁻¹
r1 + DNA ([4]; 60 MHz): 3.5 mM⁻¹ s⁻¹
signal / contrast in T1-weighted image, with DNA (1:1) [5]: did not increase the signal
signal / contrast in T1-weighted image, without DNA [5]: difficult to discern

Molecule: O=C([O-])CN(CCN(CC(=O)[O-])C[C@H](COP(=O)([O-])OC1CCC(c2ccccc2)(c2ccccc2)CC1)N(CC(=O)[O-])CC(=O)[O-])CC(=O)[O-].[Gd+3].[H+].[H+].[H+] [MS-325]
relaxivity ([6]; 60 MHz): 23 mM⁻¹ s⁻¹

Molecule: EuP3: Eu(III) metallopeptide of P3 (TERRRQQLDKDGDGTIDEREIKIHFQNKRAKIK)
gel shift / DNA affinity (in words) [1]: gel shift and disappearance of type I plasmid occurs; also recorded: DNA-binding affinity in the micromolar regime
Rates (K(obs)) of BNPP cleavage [2, 10]: 6.0 s^−1 × 10^7
Rates (K(obs)) of BNPP cleavage [2, 11]: 7.3 s^−1 × 10^7
Rates (K(obs)) of BNPP cleavage [2, 12]: 20.6 s^−1 × 10^7
Rates (K(obs)) of BNPP cleavage ([2]; 50 μM Eu/50 μM peptide, pH 7.7, 5 mM Tris buffer): 17.5 ± 4 s^−1 × 10^7
Rates (K(obs)) of BNPP cleavage ([2]; 50 μM Eu/100 μM peptide, pH 7.7, 5 mM Tris buffer): 11.5 ± 4 s^−1 × 10^7
dependence of cleavage activity on increasing concentration [7]: falls off with increasing concentration
concentration range in which nicking occurred ([7]; 10-300 μM EuP3 gradient): 10 to 150 µM
concentration with the greatest amount of cleavage ([7]; 10-300 μM EuP3 gradient): 30 µM
cleavage of supercoiled DNA (in words) ([7]; 37° C.): catalyzes the cleavage of supercoiled, double-stranded DNA

Molecule: EuP4a: Eu(III) metallopeptide of P4a (TERRRFDKDGNGYISAAELRHVKIWFQNKRAKIK)
Rates (K(obs)) of BNPP cleavage [2, 10]: 11.3 s^−1 × 10^7
Rates (K(obs)) of BNPP cleavage [2, 11]: 56.3 s^−1 × 10^7
Rates (K(obs)) of BNPP cleavage [2, 12]: 62.0 s^−1 × 10^7
Rates (K(obs)) of BNPP cleavage ([2]; 50 μM Eu/50 μM peptide, pH 7.7, 10 mM Tris buffer): 149.5 s^−1 × 10^7
Rates (K(obs)) of BNPP cleavage ([2]; 50 μM Eu/100 μM peptide, pH 7.7, 10 mM Tris buffer): 212.0 s^−1 × 10^7
dependence of cleavage activity on increasing concentration [7]: does not

Molecule: Gd-TREN-1-Me=3,2-HOPO
relaxivity ([6]; 20 MHz and 37° C.): 6 to 11 mM⁻¹ s⁻¹

Molecule: pBR322 supercoiled plasmid
Kd [8]: 20 µM

Kdim (dimerization constant) [9]: > 300 µM
B1: P4a (chimeric peptide: alpha2 and alpha3 of engrailed, minus the last turn of alpha2 and the beta-turn, with calmodulin loop I) (peptide)
peptide: TERRRFDKDGNGYISAAELRHVKIWFQNKRAKIK
modifications: also: Eu(III) complex

From patent US20050112064A1, “DNA-dependent MRI contrast agents” (priority 2003, published 2005)
